# Experimental data reported in ChEMBL document CHEMBL1201862, “PubChem BioAssay data set” (2004).
# Calls of active or inactive are those of the source.
# Key:
# [1] = biological target: T1, Cytochrome P450 1A2 (Homo sapiens, UniProt P05177);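 also: PubChem cytochrome P450 panel assay, CYP1A2 panel member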
# T1 sequence (P05177 whole entry): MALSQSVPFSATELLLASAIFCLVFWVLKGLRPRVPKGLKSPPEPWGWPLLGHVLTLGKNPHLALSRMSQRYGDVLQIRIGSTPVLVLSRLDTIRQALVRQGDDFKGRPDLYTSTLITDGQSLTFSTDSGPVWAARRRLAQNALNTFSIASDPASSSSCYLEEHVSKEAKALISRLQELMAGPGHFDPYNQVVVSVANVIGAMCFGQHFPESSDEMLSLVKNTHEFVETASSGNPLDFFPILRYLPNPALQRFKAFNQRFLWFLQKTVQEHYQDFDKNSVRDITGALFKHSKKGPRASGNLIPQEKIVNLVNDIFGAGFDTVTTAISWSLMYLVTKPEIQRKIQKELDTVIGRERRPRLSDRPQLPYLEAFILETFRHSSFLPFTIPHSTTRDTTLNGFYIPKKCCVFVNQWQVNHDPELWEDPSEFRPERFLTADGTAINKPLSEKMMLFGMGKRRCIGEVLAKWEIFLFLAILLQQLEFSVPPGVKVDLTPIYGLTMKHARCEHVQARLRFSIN
# [2] = biological target: Cytochrome P450 3A4 (Homo sapiens, UniProt P08684);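 also: CYP3A4 tested as one member of a cytochrome P450 panel screen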
# [3] = biological target: Cytochrome P450 2C9 (Homo sapiens, UniProt P11712)
# [4] = biological target: Cytochrome P450 2D6 (Homo sapiens, UniProt P10635)
# [5] = HEp-2 cell cytotoxicity, dose response, cytotoxicity control for RSV inhibitor project, HTS (AID 2410); format: functional; conditions: human respiratory syncytial virus
# [6] = biological target: Cytochrome P450 2C19 (Homo sapiens, UniProt P33261); experiment: Cytochrome panel assay with activity outcomes. Panel member name: p450-cyp2c19 Compounds with AC50 equal or less than 10 uM are considered active; format: functional; conditions: read-out: AC50
# [7] = biological target: T2, Corticotropin-releasing factor receptor 2/Corticotropin-releasing factor-binding protein (Homo sapiens, UniProt P24387+Q13324); experiment: activators of CRF receptor 2 with binding protein – uHTS hits, confirmation (AID 602473); format: functional; conditions: read-out: EC50_Mean
# T2 sequence (Q13324 whole entry): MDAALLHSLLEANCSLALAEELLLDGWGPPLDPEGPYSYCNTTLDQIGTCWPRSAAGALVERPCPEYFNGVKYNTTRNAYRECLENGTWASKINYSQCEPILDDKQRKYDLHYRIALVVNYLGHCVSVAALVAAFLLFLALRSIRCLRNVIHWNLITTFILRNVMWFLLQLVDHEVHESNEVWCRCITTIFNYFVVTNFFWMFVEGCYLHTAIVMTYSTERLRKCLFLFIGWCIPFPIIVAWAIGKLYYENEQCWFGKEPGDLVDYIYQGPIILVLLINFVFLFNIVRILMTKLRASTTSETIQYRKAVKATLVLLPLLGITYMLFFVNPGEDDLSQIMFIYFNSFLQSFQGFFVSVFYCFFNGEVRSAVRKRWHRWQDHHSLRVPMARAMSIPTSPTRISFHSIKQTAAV
# T2 sequence (P24387 whole entry): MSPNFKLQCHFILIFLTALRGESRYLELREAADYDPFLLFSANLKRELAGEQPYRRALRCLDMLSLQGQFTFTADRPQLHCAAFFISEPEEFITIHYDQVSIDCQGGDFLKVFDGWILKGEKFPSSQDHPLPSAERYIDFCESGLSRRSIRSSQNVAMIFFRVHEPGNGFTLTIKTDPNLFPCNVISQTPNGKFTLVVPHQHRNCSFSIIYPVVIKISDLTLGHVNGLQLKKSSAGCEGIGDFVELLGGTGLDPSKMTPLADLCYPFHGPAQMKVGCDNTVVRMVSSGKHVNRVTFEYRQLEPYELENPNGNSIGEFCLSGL
# [8] = biological target: T2, Corticotropin-releasing factor receptor 2/Corticotropin-releasing factor-binding protein; experiment: Dose Response confirmation of uHTS hits for small molecule antagonists of the CRF-binding protein and CRF-R2 receptor complex.; format: functional; conditions: read-out: IC50_Mean
# [9] = biological target: T3, Rac GTPase-activating protein 1 (Homo sapiens, UniProt Q9H0H5); experiment: MgcRacGAP GTPase-activating activity inhibitors, confirmation, biochemical, ADP Hunter fluorescence, primary and confirmatory (AID 624330); format: functional
# T3 sequence (Q9H0H5 whole entry): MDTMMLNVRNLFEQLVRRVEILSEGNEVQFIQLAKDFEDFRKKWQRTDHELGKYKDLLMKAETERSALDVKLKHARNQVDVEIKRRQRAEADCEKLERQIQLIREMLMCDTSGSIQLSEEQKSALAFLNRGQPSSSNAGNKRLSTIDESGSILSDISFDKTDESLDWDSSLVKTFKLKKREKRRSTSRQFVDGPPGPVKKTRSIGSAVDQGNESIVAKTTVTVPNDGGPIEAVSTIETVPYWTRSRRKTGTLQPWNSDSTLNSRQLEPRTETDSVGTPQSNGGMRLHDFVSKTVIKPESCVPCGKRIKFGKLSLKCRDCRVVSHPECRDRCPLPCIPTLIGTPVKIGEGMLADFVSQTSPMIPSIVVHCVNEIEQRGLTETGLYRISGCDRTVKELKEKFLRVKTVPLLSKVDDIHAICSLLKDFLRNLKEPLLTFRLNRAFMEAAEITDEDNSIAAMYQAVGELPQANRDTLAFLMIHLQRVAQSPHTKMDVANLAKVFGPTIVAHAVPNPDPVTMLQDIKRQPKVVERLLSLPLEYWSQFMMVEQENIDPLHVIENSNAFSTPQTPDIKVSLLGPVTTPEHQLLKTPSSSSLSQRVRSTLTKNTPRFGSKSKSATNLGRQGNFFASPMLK
# Cytochrome P450 2C19, sequence (P33261 whole entry): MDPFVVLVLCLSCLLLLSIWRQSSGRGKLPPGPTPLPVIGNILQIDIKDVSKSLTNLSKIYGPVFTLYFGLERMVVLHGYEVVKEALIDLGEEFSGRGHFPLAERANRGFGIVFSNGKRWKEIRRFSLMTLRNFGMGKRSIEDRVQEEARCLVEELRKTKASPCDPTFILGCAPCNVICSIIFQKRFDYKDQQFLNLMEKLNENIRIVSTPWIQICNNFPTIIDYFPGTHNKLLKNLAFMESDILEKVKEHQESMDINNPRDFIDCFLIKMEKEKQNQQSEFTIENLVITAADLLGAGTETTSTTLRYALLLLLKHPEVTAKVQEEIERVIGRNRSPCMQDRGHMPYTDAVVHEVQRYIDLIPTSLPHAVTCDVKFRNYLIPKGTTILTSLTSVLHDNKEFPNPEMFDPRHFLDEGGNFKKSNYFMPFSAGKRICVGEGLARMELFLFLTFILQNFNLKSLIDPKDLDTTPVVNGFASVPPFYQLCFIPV
# Cytochrome P450 2D6, sequence (P10635 whole entry): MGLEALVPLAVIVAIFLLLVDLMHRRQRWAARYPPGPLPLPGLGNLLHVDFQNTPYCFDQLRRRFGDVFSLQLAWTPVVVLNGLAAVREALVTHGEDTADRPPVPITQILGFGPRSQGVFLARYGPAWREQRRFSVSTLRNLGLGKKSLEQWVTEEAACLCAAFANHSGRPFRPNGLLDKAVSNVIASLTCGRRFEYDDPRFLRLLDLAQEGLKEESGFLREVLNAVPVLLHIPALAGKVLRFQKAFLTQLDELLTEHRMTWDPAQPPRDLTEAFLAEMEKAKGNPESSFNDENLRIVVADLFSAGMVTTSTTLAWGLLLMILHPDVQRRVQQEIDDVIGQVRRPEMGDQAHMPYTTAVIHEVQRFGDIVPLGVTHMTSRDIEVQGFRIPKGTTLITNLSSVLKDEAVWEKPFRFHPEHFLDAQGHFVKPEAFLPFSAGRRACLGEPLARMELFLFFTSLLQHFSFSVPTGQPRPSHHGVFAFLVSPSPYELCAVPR
# Cytochrome P450 2C9, sequence (P11712 whole entry): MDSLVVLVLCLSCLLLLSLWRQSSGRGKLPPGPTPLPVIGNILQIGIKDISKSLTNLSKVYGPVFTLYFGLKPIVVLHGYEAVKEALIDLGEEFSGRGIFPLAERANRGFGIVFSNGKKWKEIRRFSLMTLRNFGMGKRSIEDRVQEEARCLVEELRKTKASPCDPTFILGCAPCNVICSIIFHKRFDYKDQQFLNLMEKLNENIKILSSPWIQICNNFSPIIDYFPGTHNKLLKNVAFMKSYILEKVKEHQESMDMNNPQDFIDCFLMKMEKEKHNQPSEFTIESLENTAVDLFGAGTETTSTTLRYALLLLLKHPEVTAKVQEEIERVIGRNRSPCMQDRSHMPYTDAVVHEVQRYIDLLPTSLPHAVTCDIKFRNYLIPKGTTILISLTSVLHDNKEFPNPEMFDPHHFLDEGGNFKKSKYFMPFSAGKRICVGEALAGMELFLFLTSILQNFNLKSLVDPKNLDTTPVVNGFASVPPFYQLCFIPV
# Cytochrome P450 3A4, sequence (P08684 whole entry): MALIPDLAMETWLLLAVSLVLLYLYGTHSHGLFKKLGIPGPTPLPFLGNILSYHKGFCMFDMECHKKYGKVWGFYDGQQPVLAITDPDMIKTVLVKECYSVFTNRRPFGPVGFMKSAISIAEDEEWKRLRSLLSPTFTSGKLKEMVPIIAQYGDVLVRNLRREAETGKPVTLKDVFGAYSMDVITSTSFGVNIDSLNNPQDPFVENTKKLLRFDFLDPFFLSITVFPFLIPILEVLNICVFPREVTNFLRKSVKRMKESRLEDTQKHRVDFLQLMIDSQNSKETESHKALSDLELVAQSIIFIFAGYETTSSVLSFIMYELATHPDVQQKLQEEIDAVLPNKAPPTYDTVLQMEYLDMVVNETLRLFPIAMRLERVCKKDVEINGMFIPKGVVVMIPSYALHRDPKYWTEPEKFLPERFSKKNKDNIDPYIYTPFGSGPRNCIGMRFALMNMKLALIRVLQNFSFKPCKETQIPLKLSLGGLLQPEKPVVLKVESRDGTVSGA
compound,measurement,setting,value
CCNc1ncc2nc(-c3cc(F)cc(F)c3)c(=O)n(C[C@H]3CCCO3)c2n1,AC50,[1],3.16 µM (inconclusive)
same,AC50,[2],15.8 µM (inconclusive)
Cc1nn(C(C)C(=O)Nc2sc3c(c2C#N)CCCC3)c(C)c1[N+](=O)[O-] (stereo not given),AC50,[3],3.98 µM (inconclusive)
COc1ccc2[nH]cc(CCNc3ccnc(-c4c(C)noc4C)n3)c2c1,AC50,[4],12.6 µM (inconclusive)
same,AC50,[3],0.794 µM (inconclusive)
Oc1ccc(C23CCCC2C2(CCCC2)c2ccc(O)cc2O3)c(O)c1 (stereo not given),CC50,[5],10.6 µM (active)
C#CCN1C(C)=C(C(=O)OC)[C@@H](c2cccc([N+](=O)[O-])c2)C(C(=O)OCC)=C1C,AC50,[4],15.8 µM (inconclusive)
same,AC50,[1],12.6 µM (inconclusive)
Cc1ccc(Cn2cnc3c(nnn3Cc3ccc(Cl)cc3)c2=O)cc1,AC50,[1],25.1 µM (inconclusive)
same,AC50,[6],4.47 µM (inconclusive)
O=c1c(CCc2ccccc2)nc2cncnc2n1C1CC1,AC50,[4],15.8 µM (inconclusive)
same,AC50,[3],25.1 µM (inconclusive)
same,AC50,[6],39.8 µM (inconclusive)
same,AC50,[2],10 µM (inconclusive)
C[C@@]12C(=O)N(c3cccc(F)c3)C(=O)N1[C@H](c1ccc(Cl)cc1)[C@@H]1C(=O)N(C3CCCCC3)C(=O)[C@@H]12,CC50,[5],38.5 µM (active)
CC(C)NC(=O)N1CCN(c2ccncc2S(=O)(=O)N2CCOCC2)CC1,AC50,[3],35.5 µM (inconclusive)
same,AC50,[6],39.8 µM (inconclusive)
O=C(CSc1ccccc1)Nc1ccc(NC(=O)c2ccco2)cc1,AC50,[3],20 µM (inconclusive)
same,AC50,[6],14.1 µM (inconclusive)
CCOC(=O)c1cnc2c(cnn2C)c1NCCCN(C)C,AC50,[1],22.4 µM (inconclusive)
CCC(CC)C(=O)c1c[nH]c(C(=O)NCCc2ccccn2)c1,AC50,[3],39.8 µM (inconclusive)
same,AC50,[1],14.1 µM (inconclusive)
same,AC50,[6],20 µM (inconclusive)
same,AC50,[2],20 µM (inconclusive)
O=C(Nc1cccc(F)c1)c1cc(S(=O)(=O)N2CCOCC2)ccc1N1CCCC1,EC50,[7],> 53 µM (inactive)
Cc1cc(Nc2ccccc2)nc(N)n1,AC50,[1],8.91 µM (inconclusive)
Cn1c(=O)[nH]c(=O)c2c1nc(NCCCO)n2CCCc1ccccc1,AC50,[3],12.6 µM (inconclusive)
Cc1ccccc1OCCC(=O)Nc1cc(S(=O)(=O)N2CCCCC2)ccc1N1CCN(C)CC1,EC50,[7],9.71 µM (active)
COc1ccc(OC)c2c1s/c(=N\C(=O)C1COc3ccccc3O1)n2C (stereo not given),IC50,[8],> 47.1 µM (inactive)
same,EC50,[7],> 53 µM (inactive)
C/C(=N/NS(=O)(=O)c1ccc(Br)cc1)c1ccc(NC(=O)c2ccc(C)o2)cc1,CC50,[5],38 µM (active)
O=C(O)Cc1cccnc1C(=O)O,AC50,[1],39.8 µM (inconclusive)
O=C(CNC(=O)c1ccco1)N/N=C/c1ccc(O)cc1O,IC50,[9],104 µM (active)
CCOc1cc(/C=N/Nc2ncc(C)c(O)n2)ccc1O,IC50,[9],32.1 µM (active)
Cc1[nH]c2ccccc2c1/C=N/NC(=O)c1cccc(S(=O)(=O)Nc2cccc(C(F)(F)F)c2)c1,CC50,[5],12.2 µM (active)
